Data published in patent US9580463B2 (BRISTOL-MYERS SQUIBB COMPANY, priority 2013, dated 2017).
Read-outs that look alike come from different tables or passages of the source.

How the values were obtained:
[1] = rcm bond, 15-membered ring, Hoveyda-Grubbs II, DCE, 80.0 °C
[2] = tested on: HCV genotype 1a (H77 strain) replicon in HUH-7 cells; experiment: HCV replicon luciferase reporter assay, genotype 1a; type: cell-based; conditions: Hepatitis C virus, 72 h, genotype 1a replicon, 3 days incubation
Outline: (§1)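 Twenty-point, threefold compound titrations (0.5% DMSO) were incubated 3 days at 37 °C with 3.0×10^3 HUH-7 cells/well in 4% FCS. The cells stably carried luciferase replicons: genotype 1b Con1 (S1179I) or 1a H77 (NS3 P1496L, NS5A S2204I). Renilla signal was read after 2 h with 7.5 μM EnduRen, and EC50 was taken from a four-parameter logistic fit. Cytotoxicity (CC50) was measured by Cell Titer-Blue, 8 h.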

[3] = tested on: HCV genotype 1b (Con1) replicon in HUH-7 cells; experiment: HCV replicon luciferase reporter assay, genotype 1b; type: cell-based; conditions: Hepatitis C virus, 72 h, genotype 1b replicon, 3 days incubation
Outline: as §1

COC[C@@H]1CC(C)CC/C=C\[C@@H]2C[C@@]2(C(=O)NS(=O)(=O)C2(C)CC2)NC(=O)[C@@H]2C[C@@H](O)CN2C(=O)[C@H]1NC(=O)OC(C)(C)C (stereo partly drawn)
ring closure, isolated yield ([1]; from C=CCCC(C)C[C@@H](COC)[C@H](NC(=O)OC(C)(C)C)C(=O)N1C[C@H](O)C[C@H]1C(=O)N[C@]1(C(=O)NS(=O)(=O)C2(C)CC2)C[C@H]1C=C, 7.5 mM): 76%

COC[C@@H]1CCCC/C=C\[C@@H]2C[C@@]2(C(=O)NS(=O)(=O)C2CC2)NC(=O)[C@@H]2C[C@@H](O)CN2C(=O)[C@H]1NC(=O)OC(C)(C)C
ring closure, isolated yield ([1]; from C=CCCCC[C@@H](COC)[C@H](NC(=O)OC(C)(C)C)C(=O)N1C[C@H](O)C[C@H]1C(=O)N[C@]1(C(=O)NS(=O)(=O)C2CC2)C[C@H]1C=C, 10.8 mM, 2.0 h): 52%

COC[C@@H]1CCCC/C=C\[C@@H]2C[C@@]2(C(=O)NS(=O)(=O)C2(C)CC2)NC(=O)[C@@H]2C[C@@H](O)CN2C(=O)[C@H]1NC(=O)OC(C)(C)C
ring closure, isolated yield ([1]; from C=CCCCC[C@@H](COC)[C@H](NC(=O)OC(C)(C)C)C(=O)N1C[C@H](O)C[C@H]1C(=O)N[C@]1(C(=O)NS(=O)(=O)C2(C)CC2)C[C@H]1C=C, 24.4 mM, 2.0 h): 55%

COC[C@@H]1CC(C)CC/C=C\[C@@H]2C[C@@]2(C(=O)NS(=O)(=O)C2(CF)CC2)NC(=O)[C@@H]2C[C@@H](O)CN2C(=O)[C@H]1NC(=O)OC(C)(C)C (stereo partly drawn)
ring closure, isolated yield ([1]; from tert-butyl (2S,3R)-1-(((2S,4R)-2-(((1R,2S)-1-(((1-(fluoromethyl)cyclopropyl)sulfonyl)carbamoyl)-2-vinylcyclopropyl)carbamoyl)-4-hydroxypyrrolidin-1-yl)-3-(methoxymethyl)-5-methyl-1-oxonon-8-en-2-yl)carbamate, 5.0 mM): 45%

COC[C@@H]1CC(C)CC/C=C\[C@@H]2C[C@@]2(C(=O)NS(=O)(=O)C2CC2)NC(=O)[C@@H]2C[C@@H](O)CN2C(=O)[C@H]1NC(=O)OC(C)(C)C (stereo partly drawn)
ring closure, isolated yield ([1]; from C=CCCC(C)C[C@@H](COC)[C@H](NC(=O)OC(C)(C)C)C(=O)N1C[C@H](O)C[C@H]1C(=O)N[C@]1(C(=O)NS(=O)(=O)C2CC2)C[C@H]1C=C, 9.2 mM, 4.0 h): 71%

COC[C@@H]1C[C@@H](C)CC/C=C\[C@@H]2C[C@@]2(C(=O)NS(=O)(=O)C2(CF)CC2)NC(=O)[C@@H]2C[C@@H](Oc3nc4cc(OC)ccc4nc3C(C)C)CN2C(=O)[C@H]1NC(=O)OC(C)(C)C [Compound 1024, tert-butyl ((2R,6S,7R,9S,13aS,14aR,16aS,Z)-14a-(((1-(fluoromethyl)cyclopropyl)sulfonyl)carbamoyl)-2-((3-isopropyl-7-methoxyquinoxalin-2-yl)oxy)-7-(methoxymethyl)-9-methyl-5,16-dioxo-1,2,3,5,6,7,8,9,10,11,13a,14,14a,15,16,16a-hexadecahydrocyclopropa[e]pyrrolo[1,2-a][1,4]diazacyclopentadecin-6-yl)carbamate]
EC50 ([2]; read-out: LE_1a (EC50, range)): 35 to 620 nM | EC50 ([3]; read-out: LE_1b (EC50, range)): 5.01 to 35 nM

COC[C@@H]1C[C@@H](C)CC/C=C\[C@@H]2C[C@@]2(C(=O)NS(=O)(=O)C2(C)CC2)NC(=O)[C@@H]2C[C@@H](Oc3ncc(OC)c4ccccc34)CN2C(=O)[C@H]1NC(=O)OC(C)(C)C(F)(F)F [Compound 1017, 1,1,1-trifluoro-2-methylpropan-2-yl ((2R,6S,7R,9S,13aS,14aR,16aS,Z)-2-((4-methoxyisoquinolin-1-yl)oxy)-7-(methoxymethyl)-9-methyl-14a-(((1-methylcyclopropyl)sulfonyl)carbamoyl)-5,16-dioxo-1,2,3,5,6,7,8,9,10,11,13a,14,14a,15,16,16a-hexadecahydrocyclopropa[e]pyrrolo[1,2-a][1,4]diazacyclopentadecin-6-yl)carbamate]
EC50 ([2]; read-out: LE_1a (EC50, range)): 1.01 to 5 nM | EC50 ([3]; read-out: LE_1b (EC50, range)): 0.51 to 1 nM

COC[C@@H]1CCCC/C=C\[C@@H]2C[C@@]2(C(=O)NS(=O)(=O)C2CC2)NC(=O)[C@@H]2C[C@@H](Oc3nc4cc(OC)ccc4nc3C(F)(F)F)CN2C(=O)[C@H]1NC(=O)OC(C)(C)C [Compound 1020, tert-butyl ((2R,6S,7R,13aS,14aR,16aS,Z)-14a-((cyclopropylsulfonyl)carbamoyl)-2-((7-methoxy-3-(trifluoromethyl)quinoxalin-2-yl)oxy)-7-(methoxymethyl)-5,16-dioxo-1,2,3,5,6,7,8,9,10,11,13a,14,14a,15,16,16a-hexadecahydrocyclopropa[e]pyrrolo[1,2-a][1,4]diazacyclopentadecin-6-yl)carbamate]
EC50 ([2]; read-out: LE_1a (EC50, range)): 1.01 to 5 nM | EC50 ([3]; read-out: LE_1b (EC50, range)): 0.51 to 1 nM

COC[C@@H]1C[C@H](C)CC/C=C\[C@@H]2C[C@@]2(C(=O)NS(=O)(=O)C2CC2)NC(=O)[C@@H]2C[C@@H](Oc3nc4cc(OC)ccc4nc3C(F)(F)F)CN2C(=O)[C@H]1NC(=O)OC(C)(C)C(F)(F)F [Compound 1041, 1,1,1-trifluoro-2-methylpropan-2-yl ((2R,6S,7R,9R,13aS,14aR,16aS,Z)-14a-((cyclopropylsulfonyl)carbamoyl)-2-((7-methoxy-3-(trifluoromethyl)quinoxalin-2-yl)oxy)-7-(methoxymethyl)-9-methyl-5,16-dioxo-1,2,3,5,6,7,8,9,10,11,13a,14,14a,15,16,16a-hexadecahydrocyclopropa[e]pyrrolo[1,2-a][1,4]diazacyclopentadecin-6-yl)carbamate]
EC50 ([2]; read-out: LE_1a (EC50)): 0.61 nM | EC50 ([2]; read-out: LE_1a (EC50, range)): 0.51 to 1 nM | EC50 ([3]; read-out: LE_1b (EC50)): 0.75 nM | EC50 ([3]; read-out: LE_1b (EC50, range)): 0.51 to 1 nM
